The values below come from a melting point compilation (Tetko et al.; mined from patent text by program, amines drawn as free bases though some values may be those of a salt).

SMILES strings stand for the structures.

Broadly, the melting point is the temperature, or range, at which the solid turns liquid.

On to `NC=C(C=O)c1cccc(C(F)(F)F)c1`, for which the melting point was in the range of 63 to 70 °C.
Regarding `CC(C)(CO)Nc1nc(SCc2cccc(Oc3ccccc3)c2)nc2nc(N)sc12`, the melting point lay within 126 to 130 °C.
To `CC(C)NC1=NS(=O)(=O)c2cc(C(=O)O)ccc2N1` belongs above 310 °C.
To `COc1ccc(CN(c2ccc(F)c(Cl)c2)c2ncnc3cc(OCCCN4CCOCC4)c([N+](=O)[O-])cc23)cc1OC` belongs 129 to 132 °C; to `COc1cc(CC2COC(c3ccc(O)c(OC)c3)C2CO)ccc1O` (stereo not drawn), 169 to 171 °C; to `O=c1[nH]cnc2c1ncn2CCO`, 274 °C.
`CC(C)c1ccc(CCNc2ncnc3ncccc23)cc1` showed a melting point of 200 to 203 °C.
For `O=C(O)c1sccc1C(F)F` the value was 119 to 120 °C.
`CC(C)c1cn(C(C)(C)C(=O)N(C)C)nc1-c1ccccc1Cl` gave a melting point of 86 to 88 °C.
For the compound `Cc1ccc(OC(=O)N2CCC[C@H]2C(=O)O)cc1`, the melting point fell in the range of 76 to 77 °C.
To `Nc1cc(Br)c([N+](=O)[O-])cc1Br` belongs 178 °C; to `CC(C)(C)OC(=O)Nc1ccc(I)cc1`, 148 to 149 °C; to `Cc1cccc(-n2nc(C)c(C)c2-c2cc3cnccc3s2)n1`, 108 to 109 °C.
For `CC(=O)c1cnc2onc(C)c2c1Cl` the value was 63 °C.
`Cc1ccc2c(c1)OC(CCO)C(=O)N2` (stereo not drawn) had a melting point of 143 to 144 °C.
The compound `Cc1nc2nc(NCCN3CCC(Nc4nc5ccccc5n4Cc4ccc(F)cc4)CC3)ccc2[nH]1` displayed a melting point of 202 °C.
To `O=C(Nc1nc(O)cc(-c2ccccc2)n1)C(F)(F)F` belongs 166 to 168 °C; to `CC(Br)c1ncnc(Sc2ccc(Cl)cc2)c1F` (stereo not drawn), 86.2 to 87.5 °C; to `O=[N+]([O-])c1cc2c(Nc3cc(Cl)c(Cl)cc3F)ncnc2cc1OCCOCCO`, 149 °C.
Consider `O=C(CCN1C(=O)c2ccccc2C1=O)c1ccccc1C(=O)c1ccc(Cl)cc1Cl`, for which the melting point lay within 133 to 134 °C.
Turning to `CC1(C)COC(c2ccccc2-c2ccc(-c3ccccc3)cc2)=N1`, the melting point is 95 to 97 °C.
For `CC(C)c1ccc(NC(=O)c2ccc(C(=O)O)nc2)cc1C(C)C` the value was 199 to 200 °C; for `Cc1c(C)c2c(c(C)c1N)C(c1ccc(-c3ccccc3)cc1)CO2` (stereo not drawn), 149 to 150 °C; for `CN1N=C(c2ccc3c(c2)CCC(=O)N3)C2CC2C1=O` (stereo not drawn), 255 to 259 °C.
`CCOC(=O)c1ccc(N2CCC(NC[C@H](O)COc3ccc(O)c(S(=O)(=O)NC)c3)CC2)cc1`: the melting point worked out at 87 °C.
For `NC(=O)OC(=O)[C@@H]1Cc2ccccc2CN1C(=O)OCc1ccccc1` the value was 136 to 138 °C; for `N#Cc1cnc2sc(S(=O)(=O)Cc3ccccc3)nn2c1=O`, 219 to 221 °C; for `CC(=O)OCCCCN1CCC(CNC(=O)[C@@H]2CCCN2S(=O)(=O)c2ccc(Cl)c(COc3cccc4c(-n5ccnc5)cc(C)nc34)c2Cl)CC1`, 86 °C.
For `CN1C(=O)CC[C@]2(C)c3ccc(Sc4nc5c(Cl)cccc5s4)cc3CC[C@@H]12` the value was 207 to 209 °C; for `CNC(=S)NCCCSc1nccs1`, 67 to 68 °C.
For `Cc1cc2c(cc1C1=NNC(=O)CC1)NC(=O)C(C)O2` (stereo not drawn) the value was 252 to 254 °C; for `C[C@H](Cc1ccc2c(c1)cc(C(=O)O)n2Cc1ccccc1)NC[C@H](O)c1cccc(Cl)c1`, 128 to 130 °C; for `CCCOc1ccc(F)cc1C1=NC(=O)C2=NC=NC2=N1`, 238 °C.
Regarding `COCC1CN(c2ccc(C3CC3)cc2)C(=O)O1` (racemic), the melting point lay in the range of 58 to 60 °C.
For `COC(=O)CCCc1cc2cc(Cl)ccc2n1S(=O)(=O)c1ccc(S(=O)(=O)N2CCOCC2)cc1` the value was 54 °C.
In turn, `COc1ccc(-c2nc(CN(C)C)nc3sc(C)c(C)c23)cc1OC` returned a melting point of 118 to 120 °C.
Consider `CC(C)(C)N1CC(=O)Nc2ccc(Cl)cc2C1=O`, for which the melting point is 177 to 178 °C.
To `COc1ccc2[nH]c(C)c(C(C)=O)c2c1` belongs 156 to 158 °C; to `CC(=O)C(=O)NC(=O)[C@@H](N)Cc1ccccc1`, 138 to 140 °C.
To `OCCCN1CCC(C(O)(c2ccc(F)cc2)c2ccc(F)cc2)CC1` belongs 155 to 157 °C; to `Cc1ccc(-c2ccc(C(=O)Nc3ccc4cc(CN5CCCC5)cnc4c3C)cc2)cc1`, 177 to 179 °C; to `C=C(c1cn(-c2c(Cl)cc(C(F)(F)F)cc2Cl)nc1C#N)C(F)(F)C(F)(F)C(F)(F)F`, 109 to 110 °C.
For `O=C1Nc2c(ccc3c2CCNC3)C1=O` the value was 270 °C; for `COc1ccc(CN2CC(CO)CC2=O)cc1OC` (stereo not drawn), 78 to 79 °C; for `CCc1nc2cnc3ccccc3c2n1CCCCNS(C)(=O)=O`, 166 to 168 °C.
The compound `CCc1cc(OCc2ccc(-c3ccccc3-c3nnn(C(c4ccccc4)(c4ccccc4)c4ccccc4)n3)cc2)c2c(n1)CCCCC2` showed a melting point of 147 to 148 °C.
To `CCCCC(CC)n1nnc2c(Nc3ccc(C(C)C)cc3Br)nc(C)cc21` (stereo not drawn) belongs 73 to 74 °C.
To `CCOc1cccc(NC(=O)N2CCc3cc(SC)c(C(F)(F)F)cc32)c1` belongs 233 to 234 °C; to `CCOc1ccc(CC(=O)Cc2csc(-c3ccc(OC)c(OC)c3)n2)cc1OCC`, 141 to 142 °C; to `CC(C)C(=O)c1c[nH]c2c(COC(=O)c3ccccc3)cccc2c1=O`, 158 to 160 °C.
To `FC(F)(F)c1cccc(N2CCN(CCCCNc3cc(-c4ccccc4)ccn3)CC2)c1` belongs 120 °C; to `COc1ccc(C2=NN(CC(=O)c3ccccc3)C(=O)[C@H]3CCCC[C@@H]23)cc1OC` (relative stereo), 133 to 135 °C.
For the compound `CC(C)(C)OC(=O)Nc1ccc(C#Cc2ccccc2)cc1[N+](=O)[O-]`, the melting point fell in the range of 146 to 148 °C.
To `Cc1cc(C2CCN(S(=O)(=O)C3(C(=O)NO)CCOCC3)CC2)ccc1-c1cccc(OC[C@H](O)CO)c1` belongs 141 to 145 °C; to `COc1ccc(-c2nc3cc(OC)cc(-c4ccco4)c3o2)cc1`, 120 to 121 °C.
The compound `Clc1ccc(OCc2ccc(Cl)s2)cc1` displayed a melting point of 48 to 49 °C.
To `CCCCCC(=O)NC[C@H]1CNC(=O)O1` belongs 124 °C; to `COc1ccc(CC(=O)c2ccccc2)cc1`, 87 to 92 °C; to `CCc1nc2nccc(C)c2[nH]1`, 117 to 119 °C.
To `CC(C)(C)[Si](C)(C)OCC1(CO[Si](C)(C)C(C)(C)C)COc2cc(I)cc3c(=O)c(C(=O)NCc4ccc(Cl)cc4)cn1c23` belongs 158 to 159 °C; to `CC(=O)NNc1ccnc2c(NC(=O)c3c(Cl)cccc3Cl)cccc12`, 252 °C.
To `Cc1ccc(CC2CCN(C(=O)c3nc4ccc(O)cc4[nH]3)CC2)cc1` belongs 93 °C; to `COc1ccc2nccc(CCC[C@@H]3CCN(CCCc4cccc(F)c4)C[C@@H]3C(=O)O)c2c1`, 206 °C; to `COc1ccc2c(c1)c(Cc1cc(=O)n(-c3ccc(C(F)(F)F)cc3)[nH]1)c(C)n2C(=O)c1ccc(Cl)cc1`, 180 to 182 °C.
The compound `COC(=O)c1nc2cccc(Br)c2c(O)c1C(=O)OC` returned a melting point of 124 to 126 °C.
For `CC(C)(C)c1cc(CN(c2cccnc2)S(C)(=O)=O)cc(C(C)(C)C)c1O` the value was 133 to 134 °C; for `Cc1cc2[nH]c3cc(Cl)ncc3c(=O)n2n1`, above 300 °C.
For `CC(C)c1cccc(C(C)C)c1NC(=O)CC(=O)C(c1ccccc1)c1ccccc1` the value was 153 to 155 °C; for `C=CC(C)(C)CC(=O)C(=O)Nc1ccc2c(c1)C(=O)OC2`, 103 to 104 °C.
Regarding `CC(C)(C)OC(=O)c1ccc(C(=O)N(Cc2ccccc2)S(=O)(=O)c2ccc(Br)cc2)cc1`, the melting point fell in the range of 120 to 122 °C.
To `CC(CC1CCNCC1)c1c[nH]c2ccccc12` (stereo not drawn) belongs 125 °C; to `COc1cc2cc3c(=O)nc[nH]c3nc2cc1OC`, 311 to 312 °C.
To `CC(C)C(O)c1cc2ccncc2[nH]1` (stereo not drawn) belongs 140 to 144 °C; to `CCCCNC(=O)NC(=O)C(C)Oc1ccc(Oc2ncc(C(F)(F)F)cc2Cl)cc1` (stereo not drawn), 126 to 127 °C; to `Cc1nc(Sc2cc(C(=O)O)nc3ccccc23)sc1CC(=O)O`, 219 to 220 °C.
To `COc1cc(C2C3=C(COC3=O)N(C)c3cc4c(cc32)OCO4)cc(OC)c1O` (stereo not drawn) belongs 250 °C.
In the case of `CCCCCCCCCCCCc1cc(NC(=O)Nc2c(C(C)C)cccc2C(C)C)on1`, the melting point fell in the range of 112 to 114 °C.
Turning to `CC12CCC(CN([Si](C)(C)C)S(=O)(=O)C1)C2(C)C` (single isomer, unassigned; (-)), the melting point lay within 63 to 73 °C.
For `COc1ccc2c(c1)C=C(/C=C/C=C/C=C/C(=O)O)CO2` the value was 250 to 252 °C; for `CCOC(=O)c1cnc2c(cnn2-c2ccccc2)c1Cl`, 89 to 91 °C; for `CCOC(=O)C(C(=O)C(C)C)C1c2nccnc2C(=O)N1c1ccc2ccc(Cl)nc2n1` (stereo not drawn), 214 °C.
To `CSc1sc(-c2nnn(C)n2)c2c1C(=O)CC(C)(C)C2` belongs 233 to 235 °C; to `CCOC(=O)c1cnc2c(c(C)nn2-c2ccccn2)c1O`, 166 to 169 °C; to `CCCCCCOc1ccc(-c2nc(-c3ccc(OCCCCCC)cc3O)nc(-c3c(C)cc(C)cc3C)n2)c(O)c1`, 140 to 142 °C.
For `COc1ccc2cc(C3(O)CN4CCC3CC4)ccc2c1` (racemic) the value was above 330 °C; for `CCCCc1nc2c(N)nc3ccccc3c2n1CCCNS(C)(=O)=O`, 239 to 241 °C.
`CC(C)(c1ccc2ncccc2c1)n1nnc2ccc(-c3ccc(C(=O)NC4CC4)c(F)c3)nc21`: the melting point is 156 to 159 °C.
For `COCCc1nc2c(N)nc3cc(OCc4cccnc4)ccc3c2n1CC(C)(C)O` the value was 200 to 202 °C.
